Test results published in patent publication USRE50663E1, “Heterocycle derivatives as pesticides” (Bayer Aktiengesellschaft, priority 2017, dated 2025).

Columns and labels:
Format in all cases: in vivo
[1] = system: adult dog ticks (Rhipicephalus sanguineus); experiment: Rhipicephalus sanguineus in vitro contact test with adult brown dog ticks; conditions: application rate 5 μg/cm^2, after 48 h, dead or moribund ticks
Method: For the coating of the test tubes, 9 mg of active compound are first dissolved in 1 ml of acetone p.a. and then diluted to the desired concentration with acetone p.a. 250 μl of the solution are distributed homogeneously on the inner walls and the base of a 25 ml glass tube by turning and rocking on an orbital shaker (rocking rotation at 30 rpm for 2 h). With 900 ppm of active compound solution and internal surface area 44.7 cm^2, given homogeneous distribution, an area-based dose of 5 μg/cm^2 is achieved.
After the solvent has evaporated off, the tubes are populated with 5-10 adult dog ticks (Rhipicephalus sanguineus), sealed with a perforated plastic lid and incubated in a horizontal position in the dark at room temperature and ambient humidity. After 48 h, efficacy is determined. To this end, the ticks are knocked to the base of the tube and incubated on a hotplate at 45-50° C. for not more than 5 min. Ticks which remain motionless on the base or move in such an uncoordinated manner that they are unable to deliberately avoid the heat by climbing upwards are considered to be dead or moribund.
An efficacy of 100% means that all the ticks were dead or moribund. 0% efficacy means that none of the ticks were harmed.

[2] = system: larvae of the mustard beetle (Phaedon cochleariae); experiment: Phaedon cochleariae spray test; conditions: foliar, 168 h, 100 g/ha, after 7 days, Chinese cabbage leaf discs, read-out: efficacy
Outline: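 Chinese cabbage leaf discs sprayed with compound formulated in acetone/DMF and emulsifier-containing water, then infested with mustard beetle larvae after drying. Efficacy (% larvae killed) scored after 7 days.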

[3] = system: caterpillars of the fall armyworm (Spodoptera frugiperda); experiment: Spodoptera frugiperda spray test; conditions: foliar, 168 h, 100 g/ha, after 7 days, maize leaf discs, read-out: efficacy
Outline: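 Maize leaf discs sprayed with compound formulated in acetone/dimethylformamide and diluted in water with 1000 ppm alkylaryl polyglycol ether emulsifier, then infested with fall armyworm caterpillars once dry. Efficacy read after 7 days as % caterpillars killed (100% = all dead, 0% = none).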

[4] = system: larvae of the diamondback moth (Plutella xylostella); experiment: Comparative Plutella xylostella spray test (PLUTMA); conditions: 168 h, 7 dat, read-out: % efficacy
Method: (§1) Solvent: 14 parts by weight of dimethylformamide
(§2) Emulsifier: alkylaryl polyglycol ether
(§3) To produce a suitable active compound formulation, 1 part by weight of active compound is dissolved with the specified parts by weight of solvent and made up to the desired concentration with water containing an emulsifier concentration of 1000 ppm. To produce further test concentrations, the formulation is diluted with emulsifier-containing water. If the addition of ammonium salts or/and penetrants is required, these are each added in a concentration of 1000 ppm to the formulation solution.
Cabbage leaves (Brassica oleracea) are sprayed with an active ingredient formulation of the desired concentration and infected with larvae of the diamondback moth (Plutella xylostella).
(§4) After the desired time, the kill in % is determined. 100% means that all caterpillars have been killed; 0% means that none of the caterpillars have been killed.

[5] = system: caterpillars of the cotton bollworm (Heliothis armigera); experiment: Comparative Heliothis armigera spray test (HELIAR); conditions: Helicoverpa armigera, 168 h, 7 dat, read-out: % efficacy
Method: as §1, §2, §3
Cotton plants (Gossypium hirsutum) are sprayed with an active compound formulation of the desired concentration and, after drying, populated with caterpillars of the cotton bollworm (Heliothis armigera).
as §4

[6] = system: green peach aphid (Myzus persicae); experiment: Comparative Myzus persicae spray test (MYZUPE); conditions: 144 h, 6 dat, read-out: % efficacy
Method: as §1, §2, §3
Bell pepper plants (Capsicum annuum) severely infested with the green peach aphid (Myzus persicae) are treated by spraying with the active ingredient formulation in the desired concentration.
After the desired time, the kill in % is determined. 100% means that all the animals have been killed; 0% means that no animals have been killed.

[7] = system: L2 larvae of the banded cucumber beetle (Diabrotica balteata); experiment: Comparative Diabrotica balteata drench test (DIABBA D); conditions: soil, 192 h, 8 dat, read-out: % efficacy
Method: Solvent: 7 parts by weight of dimethylformamide
Emulsifier: 2 parts by weight of alkylaryl polyglycol ether
To produce a suitable active ingredient formulation, 1 part by weight of active ingredient is mixed with the specified amounts of solvent and emulsifier, and the concentrate is diluted with water to the desired concentration, it being necessary to take into account the volume of soil which is drenched. It should be ensured that a concentration of 40 ppm of emulsifier in the soil is not exceeded. To produce further test concentrations, water is used for dilution.
In each case 5 maize corns (Zea mays) are sown into pots filled with earth, and the next day the pots are watered with the active compound preparation of the desired concentration. After one day, about 25 L2 larvae of the banded cucumber beetle (Diabrotica balteata) are added.
After 8 days, the efficacy in % is determined. 100% means that all 5 plants have germinated and grown; 0% means that none of the plants has emerged.

CCS(=O)(=O)c1c(-c2nc3cc(C(F)(F)F)cnc3n2C)nc2cc(C3(C#N)CC3)ccn12 [Example I-11, 1-{3-(Ethylsulfonyl)-2-[3-methyl-6-(trifluoromethyl)-3H-imidazo[4,5-b]pyridin-2-yl]imidazo[1,2-a]pyridin-7-yl}cyclopropanecarbonitrile]
efficacy [1]: 100% | pest or weed control at 100 g/ha [2]: 100% | pest or weed control at 100 g/ha [3]: 100% | Emax at 0.16 ppm [4]: 100% | Emax at 0.16 ppm [5]: 100% | Emax at 0.8 ppm [6]: 90% | Emax at 0.8 ppm ([7]; 0.8 ppm): 80% | Emax at 4 ppm ([7]; 4 ppm): 100%
